In PubChem BioAssay AID330 (DTP/NCI, 2004) one finds T/C data, which are given here for 23 compounds.

For the experiment, the system named is P388 leukemia ip, CD2F1 mice, survival T/C. Briefly: NCI In Vivo Anticancer Drug Screen. Data for tumor model P388 Leukemia (intraperitoneal) in CD2F1 (CDF1) mice. To be noted: endpoint: median survival time, higher = longer survival. The procedure, abridged:
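Mice carrying the transplanted tumor received test compound or vehicle. Survival was recorded in each group, and the value is the treated-group measurement divided by that of the vehicle-treated control group.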

Setting [1] is: dose: 50.0 mg/kg/injection, schedule: Q04DX003 (ip), vehicle: saline with Tween-80.
The mark [2] stands for this setting: dose: 100.0 mg/kg/injection, schedule: Q04DX003 (ip), vehicle: saline with Tween-80.
The mark [3] stands for this setting: dose: 200.0 mg/kg/injection, schedule: Q04DX003 (ip), vehicle: saline with Tween-80.
Where [4] appears, read: dose: 50.0 mg/kg/injection, schedule: Q01DX009 (ip), vehicle: saline with Tween-80.
Where [5] appears, read: dose: 100.0 mg/kg/injection, schedule: Q01DX009 (ip), vehicle: saline with Tween-80.
Where [6] appears, read: dose: 50.0 mg/kg/injection, schedule: Q01DX009 (ip), vehicle: Klucel (hydroxypropylcellulose) (HPC).
Setting [7] is: dose: 100.0 mg/kg/injection, schedule: Q01DX009 (ip), vehicle: Klucel (hydroxypropylcellulose) (HPC).
[8] abbreviates: dose: 200.0 mg/kg/injection, schedule: Q01DX009 (ip), vehicle: Klucel (hydroxypropylcellulose) (HPC).
The mark [9] stands for this setting: dose: 50.0 mg/kg/injection, schedule: Q01DX005 (ip), vehicle: Klucel (hydroxypropylcellulose) (HPC).
Where [10] appears, read: dose: 100.0 mg/kg/injection, schedule: Q01DX005 (ip), vehicle: Klucel (hydroxypropylcellulose) (HPC).
Where [11] appears, read: dose: 200.0 mg/kg/injection, schedule: Q01DX005 (ip), vehicle: Klucel (hydroxypropylcellulose) (HPC).
Where [12] appears, read: dose: 200.0 mg/kg/injection, schedule: Q01DX009 (ip), vehicle: saline with Tween-80.
Where [13] appears, read: dose: 12.5 mg/kg/injection, schedule: Q01DX009 (ip), vehicle: saline with Tween-80.
[14] abbreviates: dose: 25.0 mg/kg/injection, schedule: Q01DX009 (ip), vehicle: saline with Tween-80.

Values joined by “and” are separate entries in the source; they are usually repeats but may differ in a detail not shown here. Identical values can stand only once. Inconclusive results and toxic doses are left out.

Regarding `O=S1(=O)CS/C(=N/C(=S)N(Cc2ccccc2)Cc2ccccc2)N1c1ccccc1`, the T/C by setting is: under setting [1], 89 % of control; under setting [2], 104 % of control; under setting [3], 111 % of control.

With `O=C1C(=O)c2ccccc2C(O)=C1CCCc1ccc(OCc2ccccc2)cc1`, the T/C was 107 % of control (dose: 5.0 mg/kg/injection, schedule: Q01DX009 (ip), vehicle: saline with Tween-80); 117 % of control (dose: 10.0 mg/kg/injection, schedule: Q01DX009 (ip), vehicle: saline with Tween-80); 108 % of control (dose: 20.0 mg/kg/injection, schedule: Q01DX009 (ip), vehicle: saline with Tween-80); 105 % of control (dose: 40.0 mg/kg/injection, schedule: Q01DX009 (ip), vehicle: saline with Tween-80).

On to `COc1cc(C2N3CCCN2CC3)cc(OC)c1OC` (stereo not drawn), for which the T/C runs as follows: (dose: 100.0 mg/kg/injection, schedule: Q01DX009 (ip), vehicle: saline) 101 % of control; (dose: 200.0 mg/kg/injection, schedule: Q01DX009 (ip), vehicle: saline) 102 % of control.

`CS(=O)(=O)OCC(O)C(O)C(O)C(O)COS(C)(=O)=O` (stereo not drawn): the T/C by setting is: (dose: 50.0 mg/kg/injection, schedule: Q01DX010 (ip), vehicle: saline) 100 % of control; (dose: 100.0 mg/kg/injection, schedule: Q01DX010 (ip), vehicle: saline) 100 % of control; (dose: 200.0 mg/kg/injection, schedule: Q01DX010 (ip), vehicle: saline) 172 % of control; (dose: 400.0 mg/kg/injection, schedule: Q01DX010 (ip), vehicle: saline) 209 % of control.

As for `CCCCCCCOCC(=O)O`, the T/C under setting [4] was 100 % of control and the T/C under setting [5] is 94 % of control.

Turning to `O=C(C(Br)(Br)Br)C(Br)(Br)c1ccccc1`, the T/C under setting [6] was 101 % of control, the T/C under setting [7] was 101 % of control and the T/C under setting [8] was 99 % of control.

Take `Cc1noc(C)c1CON`: the T/C is 91 % of control (dose: 75.0 mg/kg/injection, schedule: Q01DX009 (ip), vehicle: saline with Tween-80); 95 % of control (dose: 75.0 mg/kg/injection, schedule: Q04DX003 (ip), vehicle: saline); 95 % of control (dose: 150.0 mg/kg/injection, schedule: Q04DX003 (ip), vehicle: saline); 91 % of control (dose: 300.0 mg/kg/injection, schedule: Q04DX003 (ip), vehicle: saline).

Consider `COc1cc(/C=C/C=C(C(=O)O)C(=O)O)ccc1OCc1ccccc1`, for which the T/C by setting is: under setting [9], 100 % of control; under setting [10], 98 % of control; under setting [11], 92 % of control.

`CC(=O)OC(OC(C)=O)c1ccc([N+](=O)[O-])s1`: the T/C under setting [6] is 109 % of control and the T/C under setting [7] is 87 % of control.

Consider `CC(C)(C)N1OC2C=CC1CC2O` (stereo not drawn) (tested in a mixture with another compound), for which the T/C was 113 % of control (dose: 25.0 mg/kg/injection, schedule: Q01DX001 (ip), vehicle: Klucel (hydroxypropylcellulose) (HPC)); 114 % of control (dose: 50.0 mg/kg/injection, schedule: Q01DX001 (ip), vehicle: Klucel (hydroxypropylcellulose) (HPC)); 107 % of control (dose: 100.0 mg/kg/injection, schedule: Q01DX001 (ip), vehicle: Klucel (hydroxypropylcellulose) (HPC)).

For `C[C@]12CC[C@H]3[C@@H](CCC4=CC(=O)CC[C@@]43C)[C@@H]1CC[C@@H]2C(=O)C=O`, the T/C runs as follows: under setting [6], 109 % of control; under setting [7], 106 % of control; under setting [8], 103 % of control.

With `Cc1cccc(C)c1NC(=O)C(Cl)(Cl)Sc1ccc(Cl)cc1Cl`, the T/C runs as follows: under setting [4], 100 % of control; under setting [5], 104 % of control; under setting [12], 109 % of control.

Regarding `O=C(O)c1cccc(SS(=O)(=O)c2cccc(C(=O)O)c2)c1`, the T/C by setting is: under setting [9], 109 % of control; under setting [10], 112 % of control; under setting [11], 107 % of control.

As to `CCC(C(=O)NNC(=O)c1cc(OC)c(OC)c(OC)c1)c1ccccc1` (stereo not drawn), the T/C under setting [13] is 105 % of control, the T/C under setting [14] was 97 % of control, the T/C under setting [4] was 98 % of control and the T/C under setting [5] is 98 % of control.

For `O=C(OCc1ccccc1)SS(=O)(=O)O`, the T/C was 95 % of control under setting [6], 110 % of control under setting [7] and 119 % of control under setting [8].

On to `Cc1ccccc1Nc1n[nH]c(=S)s1`, for which the T/C is 95 % of control under setting [1], 100 % of control under setting [2] and 95 % of control under setting [3].

`N#Cc1ccc(NN=NCCSCCO)cc1`: the T/C reads like this: (dose: 12.5 mg/kg/injection, schedule: Q01DX009 (ip), vehicle: distilled water + alcohol) 96 % of control; (dose: 25.0 mg/kg/injection, schedule: Q01DX009 (ip), vehicle: distilled water + alcohol) 104 % of control; (dose: 50.0 mg/kg/injection, schedule: Q01DX009 (ip), vehicle: distilled water + alcohol) 104 % of control; (dose: 100.0 mg/kg/injection, schedule: Q01DX009 (ip), vehicle: distilled water + alcohol) 109 % of control.

For `CCCCCCCCCCCOC(=O)c1ccc(O)cc1`, the T/C is 98 % of control under setting [13]; 102 % of control under setting [14]; 105 % of control and 106 % of control under setting [4]; 103 % of control under setting [5].

As for `CC(C)(C)C(=O)Oc1ccc(N=C(N)N)cc1`, the T/C was 102 % of control (dose: 50.0 mg/kg/injection, schedule: Q01DX005 (ip), vehicle: saline); 104 % of control (dose: 100.0 mg/kg/injection, schedule: Q01DX005 (ip), vehicle: saline); 105 % of control (dose: 200.0 mg/kg/injection, schedule: Q01DX005 (ip), vehicle: saline).

With `CC(C)N(C(=S)/N=C1/SCS(=O)(=O)N1C)C(C)C`, the T/C was 101 % of control under setting [1], 104 % of control under setting [2] and 104 % of control under setting [3].

In the case of `Nc1ccc(-c2csc(-c3ccc(Br)cc3)n2)cc1`, the T/C is 100 % of control (dose: 12.5 mg/kg/injection, schedule: Q01DX009 (ip), vehicle: Klucel (hydroxypropylcellulose) (HPC)); 91 % of control (dose: 25.0 mg/kg/injection, schedule: Q01DX009 (ip), vehicle: Klucel (hydroxypropylcellulose) (HPC)); 88 % of control under setting [6].

For `CC1(C)N=C(N)N=C(N)N1c1cccc(CCCCc2ccc(Cl)c(S(=O)(=O)F)c2)c1`, where the note is “dose: 9.33 mg/kg/injection, schedule: Q01DX009 (ip), vehicle: saline”, the T/C is 118 % of control.

Regarding `CN(C(=O)OCc1ccccc1)c1ccc(C(=O)NC(CCC(=O)OCc2ccccc2)C(=O)OCc2ccccc2)cc1` (stereo not drawn), the T/C under setting [12] was 94 % of control.
